Counter-ions that a name gives are not always drawn.
Test system: HCT 116 cells (human colon carcinoma, ATCC-No. CCl-247)
Assay: CellTiter-Glo Luminescent Cell Viability Assay in HCT 116 cells
Format: cell-based
Settings: HCT 116 cell viability, CellTiter-Glo (ATP luminescence), 5 days (120 h) incubation, 10 concentrations 30 μM to 0.0015 μM, triplicate
From the text: CellTiter-Glo™ Assay in HCT 116 Cells
The CellTiter-Glo™ Luminescent Cell Viability Assay (Promega) is a homogeneous method of determining the number of viable cells in culture based on quantitation of the ATP present, which signals the presence of metabolically active cells.
HCT 116 cells (human colon carcinoma, ATCC-No. CCl-247) were cultivated in RPMI 1640 medium with GlutaMAX™ I (Invitrogen, Cat-No. 61870-010), 5% Fetal Calf Serum (FCS, Sigma Cat-No. F4135 (FBS)); 100 Units/ml penicillin/100 μg/ml streptomycin (=Pen/Strep from Invitrogen Cat. No. 15140). For the assay the cells were seeded in 384 well plates, 1000 cells per well, in the same medium. The next day the test compounds were added in various concentrations ranging from 30 μM to 0.0015 μM (10 concentrations, 1:3 diluted). After 5 days the CellTiter-Glo™ assay was done according to the instructions of the manufacturer (CellTiter-Glo™ Luminescent Cell Viability Assay, from Promega). In brief the cell-plate was equilibrated to room temperature for approximately 30 minutes and than the CellTiter-Glo™ reagent was added. The contents were carefully mixed for 15 minutes to induce cell lysis. After 45 minutes the luminescent signal was measured in Victor 2, (scanning multiwell spectrophotometer, Wallac).
• Medium: RPMI 1640 with GlutaMAX™ I (Invitrogen, Cat-Nr. 61870), 5% FCS (Sigma Cat.-No. F4135), Pen/Strep (Invitrogen, Cat No. 15140). • HCT116 (ATCC-No. CCl-247): 1000 cells in 60 μl per well of 384 well plate (Greiner 781098, μClear-plate white) • After seeding incubate plates 24 h at 37° C., 5% CO2 2nd. Day: Induction (Treatment with Compounds, 10 Concentrations):
In order to achieve a final concentration of 30 μM as highest concentration 3.5 μl of 10 mM compound stock solution were added directly to 163 μl media. Then step e) of the dilution procedure described below, was followed.

| Compound | IC50 |
| --- | --- |
| O=C(NS(=O)(=O)c1ccc(N2CCN(c3ccc(F)cc3)CC2)nc1)c1ccc(F)cc1Cl [Example 1-17, 6-[4-(4-Fluoro-phenyl)-piperazin-1-yl]-pyridine-3-sulfonic acid 2-chloro-4-fluoro-benzoylamide; sodium salt] | 1 to 10 µM |
| COc1cc(Cl)ccc1C(=O)NS(=O)(=O)c1ccc(N2CCN(c3ccccc3OC)CC2)nc1 [Example 1-8, 6-[4-(2-Methoxy-phenyl)-piperazin-1-yl]-pyridine-3-sulfonic acid 4-chloro-2-methoxy-benzoylamide; ammonium salt] | 1 to 10 µM |
| COc1cc(Cl)ccc1C(=O)NS(=O)(=O)c1ccc(N2CCC3(CC2)OCCCO3)nc1 [Example 1-12, 6-(1,5-Dioxa-9-aza-spiro[5.5]undec-9-yl)-pyridine-3-sulfonic acid 4-chloro-2-methoxy-benzoylamide] | 1 to 10 µM |
| O=C(NS(=O)(=O)c1ccc(N2CCC3(CC2)OCCCO3)nc1)c1ccc(Cl)cc1C(F)(F)F [Example 1-2, 6-(1,5-Dioxa-9-aza-spiro[5.5]undec-9-yl)-pyridine-3-sulfonic acid 4-chloro-2-trifluoromethyl-benzoylamide; ammonium salt] | 4.28 µM |
| COc1ccccc1N1CCN(c2ccc(S(=O)(=O)NC(=O)c3ccc(F)cc3Cl)cn2)CC1 [Example 1-14, 6-[4-(2-Methoxy-phenyl)-piperazin-1-yl]-pyridine-3-sulfonic acid 2-chloro-4-fluoro-benzoylamide; sodium salt] | 1 to 10 µM |
| COc1cc(Cl)ccc1C(=O)NS(=O)(=O)c1ccc(N2CCN(c3ccccc3)CC2)nc1 [Example 1-4, 6-(4-Phenyl-piperazin-1-yl)-pyridine-3-sulfonic acid 4-chloro-2-methoxy-benzoylamide] | 1 to 10 µM |
| COc1cc(Cl)ccc1C(=O)NS(=O)(=O)c1ccc(N2CCN(c3ccc(F)cc3)CC2)nc1 [Example 1-11, 6-[4-(4-Fluoro-phenyl)-piperazin-1-yl]-pyridine-3-sulfonic acid 4-chloro-2-methoxy-benzoylamide] | 1.25 µM |
| O=C(NS(=O)(=O)c1ccc(N2CCN(c3ccccc3)CC2)nc1)c1ccc(Cl)cc1Cl [Example 1-15, 6-(4-Phenyl-piperazin-1-yl)-pyridine-3-sulfonic acid 2,4-dichloro-benzoylamide; sodium salt] | 1 to 10 µM |
| O=C(NS(=O)(=O)c1ccc(N2CCN(c3ccccn3)CC2)nc1)c1ccc(Cl)cc1Cl [Example 1-1, 6-(4-Pyridin-2-yl-piperazin-1-yl)-pyridine-3-sulfonic acid 2,4-dichloro-benzoylamide; ammonium salt] | 3.35 µM |
| O=C(NS(=O)(=O)c1ccc(N2CCN(c3ccc(F)cc3)CC2)nc1)c1ccc(Cl)cc1Cl [Example 1-16, 6-[4-(4-Fluoro-phenyl)-piperazin-1-yl]-pyridine-3-sulfonic acid 2,4-dichloro-benzoylamide; sodium salt] | 1 to 10 µM |
| O=C(NS(=O)(=O)c1ccc(N2CCN(c3ccccn3)CC2)nc1)c1ccc(F)cc1Cl [Example 1-5, 6-(4-Pyridin-2-yl-piperazin-1-yl)-pyridine-3-sulfonic acid 2-chloro-4-fluoro-benzoylamide; ammonium salt] | 1 to 10 µM |
| O=C(NS(=O)(=O)c1ccc(N2CCN(c3ccccc3)CC2)nc1)c1ccc(F)cc1Cl [Example 1-10, 6-(4-Phenyl-piperazin-1-yl)-pyridine-3-sulfonic acid 2-chloro-4-fluoro-benzoylamide] | 1 to 10 µM |

Other lines, results leading:

| IC50 | Compound |
| --- | --- |
| 1 to 10 µM | O=C(NS(=O)(=O)c1ccc(N2CCN(c3ccc(F)cc3)CC2)nc1)c1ccc(F)cc1C(F)(F)F [Example 1-7, 6-[4-(4-Fluoro-phenyl)-piperazin-1-yl]-pyridine-3-sulfonic acid 4-fluoro-2-trifluoromethyl-benzoylamide; ammonium salt] |
| 1 to 10 µM | COc1ccccc1N1CCN(c2ccc(S(=O)(=O)NC(=O)c3ccc(Cl)cc3C(F)(F)F)cn2)CC1 [Example 1-13, 6-[4-(2-Methoxy-phenyl)-piperazin-1-yl]-pyridine-3-sulfonic acid 4-chloro-2-trifluoromethyl-benzoylamide] |
| 1 to 10 µM | COc1ccc(N2CCN(c3ccc(S(=O)(=O)NC(=O)c4ccc(Cl)cc4C(F)(F)F)cn3)CC2)cc1 [Example 1-9, 6-[4-(4-Methoxy-phenyl)-piperazin-1-yl]-pyridine-3-sulfonic acid 4-chloro-2-trifluoromethyl-benzoylamide] |
| 1 to 10 µM | O=C(NS(=O)(=O)c1ccc(N2CCN(c3ccccn3)CC2)nc1)c1ccc(F)cc1C(F)(F)F [Example 1-6, 6-(4-Pyridin-2-yl-piperazin-1-yl)-pyridine-3-sulfonic acid 4-fluoro-2-trifluoromethyl-benzoylamide; ammonium salt] |
| 1 to 10 µM | O=C(NS(=O)(=O)c1ccc(N2CCN(c3ccccc3)CC2)nc1)c1ccc(F)cc1C(F)(F)F [Example 1-18, 6-(4-Phenyl-piperazin-1-yl)-pyridine-3-sulfonic acid 4-fluoro-2-trifluoromethyl-benzoylamide; sodium salt] |
| 1 to 10 µM | O=C(NS(=O)(=O)c1ccc(N2CCN(c3ccccc3F)CC2)nc1)c1ccc(F)cc1C(F)(F)F [Example 1-19, 6-[4-(2-Fluoro-phenyl)-piperazin-1-yl]-pyridine-3-sulfonic acid 4-fluoro-2-trifluoromethyl-benzoylamide; sodium salt] |
| 1 to 10 µM | Cc1cccc(N2CCN(c3ccc(S(=O)(=O)NC(=O)c4ccc(F)cc4C(F)(F)F)cn3)CC2)c1 [Example 1-3, 6-(4-m-Tolyl-piperazin-1-yl)-pyridine-3-sulfonic acid 4-fluoro-2-trifluoromethyl-benzoylamide; sodium salt] |
| 1 to 10 µM | O=C(NS(=O)(=O)c1ccc(N2CCN(c3ccc(F)cc3F)CC2)nc1)c1ccc(F)cc1C(F)(F)F [Example 1-20, 6-[4-(2,4-Difluoro-phenyl)-piperazin-1-yl]-pyridine-3-sulfonic acid 4-fluoro-2-trifluoromethyl-benzoylamide; sodium salt] |
